The record followed here is PubChem BioAssay AID504563 (Southern Research Specialized Biocontainment Screening …, 2011).

For orientation: IC50 means the point on the concentration scale where inhibition reaches its midpoint.

The assay deals with HIV-1 CXCR4-tropic in human PBMC, supernatant RT activity. Nature of the assay: antiviral activity, X4 HIV-1 in human PBMC – cell-based, set 2, dose response (AID 504563).

Consider `Cc1c2c(=O)n(-c3nc4ccccc4s3)nc-2cc(O)n1C1CC1`, for which the IC50 is 0.76 µM. The same measure for `Cc1c2c(=O)n(-c3nc4ccccc4s3)nc-2cc(O)n1Cc1ccccc1`: 3.21 µM. For the compound `Cc1c2c(=O)n(-c3nc4ccccc4s3)nc-2cc(O)n1Cc1cccs1`, the IC50 was 1.83 µM. The same measure for `COc1ccccc1Cn1c(O)cc2nn(-c3nc4ccccc4s3)c(=O)c-2c1C`: 5.55 µM. The result for `Cc1c2c(=O)n(-c3nc4ccccc4s3)nc-2cc(O)n1CCC(C)C` reads 5.25 µM; that for `Cc1c2c(=O)n(-c3nc4ccccc4s3)nc-2cc(O)n1Cc1cccnc1`, 1.51 µM. `Cc1c2c(=O)n(-c3nc4ccccc4s3)nc-2cc(O)n1Cc1ccccc1Cl`: the IC50 was 7.26 µM.

For `Cc1c2c(=O)n(-c3nc4ccccc4s3)nc-2cc(O)n1Cc1ccc(F)cc1`, the IC50 was 3.98 µM.

For the compound `Cc1c2c(=O)n(-c3nc4ccccc4s3)nc-2cc(O)n1CCc1ccc(O)cc1`, the IC50 is 1.85 µM. As to `Cc1c2c(=O)n(-c3nc4ccccc4s3)nc-2cc(O)n1CCc1cccs1`, the IC50 was 3.77 µM.

With `COc1ccc(Cn2c(O)cc3nn(-c4nc5ccccc5s4)c(=O)c-3c2C)cc1`, the IC50 was 2.86 µM. On to `COc1ccc(CCn2c(O)cc3nn(-c4nc5ccccc5s4)c(=O)c-3c2C)cc1`, for which the concentration for half-maximal inhibition (IC50) is 12.6 µM. The result for `Cc1c2c(=O)n(-c3nc4ccccc4s3)nc-2cc(O)n1Cc1ccncc1` reads 1.99 µM.
